Laboratory results as given in publication PMC11696576, “Next generation thiazolyl ketone inhibitors of cytosolic phospholipase A2 α for targeted cancer therapy” (Nature Communications, 2025).
Several values for one entry are separate records, joined by “and”; a condition that tells them apart may be missing. Equal values may be shown once. Read-outs that look alike come from different tables or passages of the source.

System: panel of 66 cancer cell lines
Experiment: cancer cell line screen, proliferation assay (ATPlite, 72 h)
Assay type: cell-based, human
Conditions: for raw signal, dose-response (Figure S7a): rep1, rep2, listed as AVX235; for IC50: Homo sapiens
Source text: Targeting specific molecular vulnerabilities in cancer is considered a key approach to reducing the adverse effects of chemotherapy. However, the events that govern the susceptibility to suppression of the cPLA2α in cancer remain largely unexplored. We therefore took the approach of screening the antiproliferative activity of AVX420 in a panel of 66 cancer cell lines (hereafter referred to as the cancer cell line screen or CCLS) to allow us to investigate molecular and genetic vulnerabilities to the drug.
Screening of compound activities in 66 cancer cell lines was carried out at the Netherlands Translation Research Center. Briefly, proliferation assays were performed 72 h after compound addition using ATPlite 1step reagent (Perkin Elmer). IC50s calculated by non-linear regression analysis were used as a measure of compound activity for investigating associations with genetic factors. A complete description of the laboratory and data analysis methods are available in the Supplementary Information file (Supplemental Methods: Cancer Cell Line Screening).
Cancer cell line screening
Cell proliferation assays
All cell lines were from the American Type Culture Collection (ATCC) Manassas, Virginia (US) and maintained under ATCC-recommended protocols and within 9 pas- […]
DMSO at -80°C until one hour before use. Cells exposed within one hour after thaw-ing of the compound stocks. Final compound concentration range in the assay was 10 […]
cated by supplier. Compounds were dissolved in 100 % DMSO and stored at room temperature. Final concentration of the reference compounds in the assay was 3.16x10-5 M to 3.16x10-9 M. The final DMSO concentration during incubation was […]
Cell lines were plated in Advanced RPMI 1640 (Gibco, ref 12633-012) cell culture medium, containing 1% Glutamax solution (Gibco, ref 35050-038), 0.4% Pen Strep solution (Gibco, ref 15140-122) and bovine serum. The cPLA2α inhibitors were tested in 0.5% bovine serum (HyClone, ref SH30072.03) with the exception of769-P, A-204, BT-549, SR, T98G, which were tested in the presence of 1.0% serum and A-704 and LNCaP FGS, which were tested in the in the presence of 10% serum. Reference com-pounds were all tested in the presence of 10% bovine serum.
Cells were dispensed in a 384-well plate, at a concentration of 200 - 3200 cells per well, depending on the cell line, in 45 μL medium. Plated cells were incubated in a humidified atmosphere of 5% CO2 at 37 °C. After 24 hours, 5 μL of compound dilu-tion was added and plates were further incubated for another 72 hours. After 72 hours, 25 μL of ATPlite 1Step™ (PerkinElmer) solution was added to each well, and subse-quently shaken for 2 minutes. After 10 minutes of incubation in the dark, the lumines-cence was recorded on an Envision multimode reader (PerkinElmer).
Cell growth control. The cellular doubling times of all cell lines are calculated from the t = 0 hours and t = 72 hours growth signals of the untreated cells. If the doubling time is out of specification (0.5 – 2.0 times deviating from historic average) the assay […]
IC50s were calculated by non-linear regression using IDBS XLfit 5. The percentage growth after 72h (%-growth) was calculated as follows: 100% x (luminescence t = 72h / luminescence untreated,t=72h). This was fitted to the 10log compound concentration (conc) by a 4-parameter logistics curve: %-growth = bottom + (top – bottom) / (1+ 10(logIC50 – conc)*hill)), where hill is the Hill-coefficient, and bottom and top the asymptotic mini-mum and maximum cell growth that the compound allows in that assay.
All analysis were performed in the statistical software package R and visualized using GraphPad Prism version 10.0 .0

## CCCCCCCCc1ccc(OCC(=O)c2nc(C(=O)OC)cs2)cc1 [GK470]
10log of IC50 in nM, panel average
  average panel 10logIC50: 4.20
769P, kidney
  pIC50: 4,709
786O, kidney
  pIC50: 4,868
A172, central_nervous_system
  pIC50: 4,701
A204, soft_tissue
  pIC50: 4,858
A375, skin
  pIC50: 4,792
A427, lung
  pIC50: 4,933
A498, kidney
  pIC50: 4,604
A549, lung
  pIC50: 4,718
ACHN, kidney
  pIC50: 4,677
AN3CA, endometrium
  pIC50: 4,738
AU565, breast
  pIC50: 4,915
AsPC1, pancreas
  pIC50: 4,828
BT20, breast
  pIC50: 4,526
BT549, breast
  pIC50: 4,643
BxPC3, pancreas
  pIC50: 4,719
C33A, cervix
  pIC50: 4,835
CAL27, upper_aerodigestive_tract
  pIC50: 4,767
CCRF-CEM, Log10 M -4
  raw signal, dose-response (Figure S7a): 6827 and 7267
CCRF-CEM, Log10 M -6
  raw signal, dose-response (Figure S7a): 6001427 and 6137653
CCRF-CEM, Log10 M -6.5
  raw signal, dose-response (Figure S7a): 6250880 and 6122947
CCRF-CEM, Log10 M -7
  raw signal, dose-response (Figure S7a): 6208933 and 6388787
CCRF-CEM, Log10 M -7.5
  raw signal, dose-response (Figure S7a): 5662213 and 5677453
CCRF-CEM, Log10 M -8
  raw signal, dose-response (Figure S7a): 5954640 and 6349707
COLO829, unknown
  pIC50: 4,775
Daoy, central_nervous_system
  pIC50: 4,799
DoTc24510, cervix
  pIC50: 4,777
FaDu, upper_aerodigestive_tract
  pIC50: 4,794
HCT15, large_intestine
  pIC50: 4,921
HCT116, large_intestine
  pIC50: 4,798
769-P, read-out: IC50
  IC50: 19.6 µM
786-0, 786-O, read-out: IC50
  IC50: 13.6 µM
72 h, panel average, 72 h, read-out: average IC50 in the cancer cell line screen
  IC50: 16.3 µM
A 172, A-172, read-out: IC50
  IC50: 19.9 µM
A204, A-204, read-out: IC50
  IC50: 13.9 µM
A388, cervix, read-out: pIC50 (converted)
  IC50: 14.5 µM
A388, read-out: IC50
  IC50: 14.5 µM
A498, A-498, read-out: IC50
  IC50: 24.9 µM
A549, A-549, read-out: IC50
  IC50: 19.1 µM
A704, A704, kidney, read-out: pIC50 (converted)
  IC50: 34 µM
A704, A-704, read-out: IC50
  IC50: > 100 µM
A-375, A375, read-out: IC50
  IC50: 16.1 µM
A-427, A-427, read-out: IC50
  IC50: 11.7 µM
ACHN, read-out: IC50
  IC50: 21.1 µM
AN3-CA, AN3 CA, read-out: IC50
  IC50: 18.3 µM
ASPC1, AsPC-1, read-out: IC50
  IC50: 14.8 µM
AU565, AU-565, read-out: IC50
  IC50: 12.2 µM
BT-20, BT-20, read-out: IC50
  IC50: 29.8 µM
BT-549, BT-549, read-out: IC50
  IC50: 22.7 µM
BXPC-3, BxPC-3, read-out: IC50
  IC50: 19.1 µM
C-33-A, C-33 A, read-out: IC50
  IC50: 14.6 µM
CAL-27, CAL 27, read-out: IC50
  IC50: 17.1 µM
CCRF-CEM, CCRFCEM, blood, read-out: pIC50 (converted)
  IC50: 11.7 µM
CCRF-CEM, read-out: IC50
  IC50: 11.7 µM
COLO 205, COLO 205, read-out: IC50
  IC50: 18.5 µM
COLO-829, COLO 829, read-out: IC50
  IC50: 16.8 µM
DLD-1, DLD1, large_intestine, read-out: pIC50 (converted)
  IC50: 13.8 µM
DLD-1, DLD-1, read-out: IC50
  IC50: 13.8 µM
DU-145, DU 145, read-out: IC50
  IC50: 19.3 µM
Daoy, read-out: IC50
  IC50: 15.9 µM
DoTc2-4510, DoTc2 4510, read-out: IC50
  IC50: 16.7 µM
FaDu, read-out: IC50
  IC50: 16.1 µM
HCT-15, HCT-15, read-out: IC50
  IC50: 12 µM
HCT-116, HCT 116, read-out: IC50
  IC50: 15.9 µM
Hs-578T, Hs 578T, read-out: IC50
  IC50: 13.7 µM
J82, J82, read-out: IC50
  IC50: 15.8 µM
Jurkat E6.1, Jurkat E6.1, read-out: IC50
  IC50: 12.5 µM
K562, K-562, read-out: IC50
  IC50: 10.9 µM
KU812, KU812, read-out: IC50
  IC50: 10.4 µM
LNCaP, LNCaP FGC, read-out: IC50
  IC50: > 100 µM
LS174T, LS 174T, read-out: IC50
  IC50: 13 µM
LoVo, read-out: IC50
  IC50: 19.3 µM
MCF7, MCF7, read-out: IC50
  IC50: 12.7 µM
MG-63, MG63, bone, read-out: pIC50 (converted)
  IC50: 20.4 µM
MG-63, MG-63, read-out: IC50
  IC50: 20.4 µM
MIA PaCa-2, MIA PaCa-2, read-out: IC50
  IC50: 10.9 µM
MOLT-4, MOLT-4, read-out: IC50
  IC50: 12 µM
MeWo, read-out: IC50
  IC50: 17.3 µM
NCI-H82, NCI-H82, read-out: IC50
  IC50: 13.7 µM
NCI-H460, NCI-H460, read-out: IC50
  IC50: 22.5 µM
OVCAR-3, OVCAR-3, read-out: IC50
  IC50: 14.3 µM
PA-1, PA-1, read-out: IC50
  IC50: 11.6 µM
RKO, read-out: IC50
  IC50: 8.87 µM
RPMI-7951, RPMI-7951, read-out: IC50
  IC50: 16.2 µM
RT-4, RT4, read-out: IC50
  IC50: 16.5 µM
SHP77, SHP-77, read-out: IC50
  IC50: 11.9 µM
SJCRH30, read-out: IC50
  IC50: 18.4 µM
